Laboratory results published in ChEMBL document CHEMBL5247642, “Structural Optimization of Fibroblast Growth Factor Receptor Inhibitors for Treating Solid Tumors” (J Med Chem, 2023).
≈ marks a conversion by molar mass, not a printed value. Calls of active or inactive are those of the source. The rule behind the calls is not given here.

Tests used:
SNU-16 = experiment: Antiproliferative activity against human SNU-16 cells assessed as reduction in cell viability measured for 72 hrs; assay type: functional, cell-based; conditions: SNU-16, 72 h
[1] = Solubility of compound in PBS at pH 7.4 at 1 to 100 microg/ml by laser nephelometry analysis; assay type: physicochemical; conditions: dose 1-100 µg/ml
[2] = target: T1, Fibroblast growth factor receptor 1 (Homo sapiens, UniProt P11362); experiment: Inhibition of FGFR1 (unknown origin) using Poly (Glu,Tyr) 4:1 as substrate incubated for 60 mins in presence of ATP by ELISA analysis
Target sequence in this assay (P11362 whole entry): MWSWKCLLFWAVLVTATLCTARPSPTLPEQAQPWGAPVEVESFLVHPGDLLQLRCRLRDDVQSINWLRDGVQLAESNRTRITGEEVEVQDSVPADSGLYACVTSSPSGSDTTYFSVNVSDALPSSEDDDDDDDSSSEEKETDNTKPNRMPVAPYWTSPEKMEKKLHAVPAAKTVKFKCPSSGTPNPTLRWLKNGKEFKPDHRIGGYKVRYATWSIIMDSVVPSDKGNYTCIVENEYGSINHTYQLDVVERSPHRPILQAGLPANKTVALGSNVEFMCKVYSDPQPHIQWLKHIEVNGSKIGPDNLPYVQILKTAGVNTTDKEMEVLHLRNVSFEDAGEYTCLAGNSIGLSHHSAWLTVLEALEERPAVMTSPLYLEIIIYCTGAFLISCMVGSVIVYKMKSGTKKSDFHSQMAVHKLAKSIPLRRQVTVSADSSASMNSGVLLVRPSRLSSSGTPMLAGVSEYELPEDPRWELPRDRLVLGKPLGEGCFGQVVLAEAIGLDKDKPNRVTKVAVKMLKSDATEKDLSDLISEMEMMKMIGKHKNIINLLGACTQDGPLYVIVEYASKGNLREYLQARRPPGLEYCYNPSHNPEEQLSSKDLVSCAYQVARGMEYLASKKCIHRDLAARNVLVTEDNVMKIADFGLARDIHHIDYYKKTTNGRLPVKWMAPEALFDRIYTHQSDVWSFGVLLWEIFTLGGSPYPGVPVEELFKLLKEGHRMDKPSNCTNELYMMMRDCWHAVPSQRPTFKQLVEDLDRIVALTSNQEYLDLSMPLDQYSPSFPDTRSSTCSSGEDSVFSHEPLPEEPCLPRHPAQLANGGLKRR

[3] = target: T1, Fibroblast growth factor receptor 1; conditions: dose 100.0 nM, time 60.0 min
Target sequence in this assay (P11362 22-822 limits assumed): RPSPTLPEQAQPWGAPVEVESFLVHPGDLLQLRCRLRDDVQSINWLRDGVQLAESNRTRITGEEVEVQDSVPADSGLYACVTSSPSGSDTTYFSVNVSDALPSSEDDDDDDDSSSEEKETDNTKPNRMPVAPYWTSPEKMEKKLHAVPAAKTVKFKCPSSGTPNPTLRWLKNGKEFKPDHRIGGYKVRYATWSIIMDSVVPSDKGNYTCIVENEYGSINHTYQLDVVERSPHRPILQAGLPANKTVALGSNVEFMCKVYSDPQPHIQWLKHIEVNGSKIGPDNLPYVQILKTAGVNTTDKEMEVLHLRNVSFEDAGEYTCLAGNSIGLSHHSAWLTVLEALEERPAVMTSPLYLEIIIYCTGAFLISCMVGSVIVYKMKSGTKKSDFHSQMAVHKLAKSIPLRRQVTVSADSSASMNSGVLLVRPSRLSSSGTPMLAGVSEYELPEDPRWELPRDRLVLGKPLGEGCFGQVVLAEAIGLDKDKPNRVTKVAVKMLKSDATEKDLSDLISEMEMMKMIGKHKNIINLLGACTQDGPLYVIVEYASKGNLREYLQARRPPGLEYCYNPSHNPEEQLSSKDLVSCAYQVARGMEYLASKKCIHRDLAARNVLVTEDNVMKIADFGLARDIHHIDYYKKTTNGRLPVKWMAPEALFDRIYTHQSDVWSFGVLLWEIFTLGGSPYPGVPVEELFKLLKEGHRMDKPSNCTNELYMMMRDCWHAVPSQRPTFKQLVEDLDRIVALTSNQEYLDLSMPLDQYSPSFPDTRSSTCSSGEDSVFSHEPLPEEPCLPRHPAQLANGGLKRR

[4] = target: Fibroblast growth factor receptor 4 (Homo sapiens, UniProt P22455); experiment: Inhibition of FGFR4 (unknown origin) using Poly (Glu,Tyr) 4:1 as substrate incubated for 60 mins in presence of ATP by ELISA analysis
[5] = GSH reactivity in PBS buffer assessed as percentage peak area ratio incubated for 24 hrs by LC-MS/MS analysis; assay type: physicochemical
[6] = target: T1, Fibroblast growth factor receptor 1; conditions: dose 10.0 nM, time 60.0 min
Target sequence in this assay (P11362 22-822 limits assumed): as above

[7] = target: Fibroblast growth factor receptor 3 (Homo sapiens, UniProt P22607); experiment: Inhibition of FGFR3 (unknown origin) using Poly (Glu,Tyr) 4:1 as substrate incubated for 60 mins in presence of ATP by ELISA analysis
[8] = Stability in rat whole blood assessed as parent compound remaining measured after 2 hrs by LC-MS/MS analysis; assay type: ADME, tissue-based; conditions: read-out: Stability
[9] = target: T1, Fibroblast growth factor receptor 1; conditions: dose 1.0 nM, time 60.0 min
Target sequence in this assay (P11362 22-822 limits assumed): as above

[10] = target: Fibroblast growth factor receptor 2 (Homo sapiens, UniProt P21802); experiment: Inhibition of FGFR2 (unknown origin) using Poly (Glu,Tyr) 4:1 as substrate incubated for 60 mins in presence of ATP by ELISA analysis
[11] = Stability in rat whole blood assessed as parent compound remaining measured upto 5 hrs by LC-MS/MS analysis; assay type: ADME, tissue-based
[12] = target: Fibroblast growth factor receptor (Homo sapiens) (UniProt P22607+P11362+P22455+P21802); experiment: Inhibition of FGFR signalling in human SNU-16 assessed as inhibition of pErk phosphorylation at 0.1 nM incubated for 2 hrs by Western blot analysis; assay type: cell-based
[13] = target: Voltage-gated inwardly rectifying potassium channel KCNH2 (Homo sapiens, UniProt Q12809); experiment: Inhibition of hERG expressed in CHO cells at -80 mV holding potential by automated patch clamp method; assay type: toxicity, cell-based
[14] = Solubility of compound in PBS at pH 7.4; assay type: physicochemical
NCI-H1581 = experiment: Antiproliferative activity against human NCI-H1581 cells expressing FGFR1 assessed as reduction in cell viability measured after 72 hrs; assay type: functional, cell-based; conditions: NCI-H1581, 72 h
NCI-H716 = experiment: Antiproliferative activity against human NCI-H716 cells expressing FGFR2 assessed as reduction in cell viability measured after 72 hrs; assay type: functional, cell-based; conditions: NCI-H716, 72 h

Chain of Fibroblast growth factor receptor (Homo sapiens) (P11362 whole entry, looked up): as the sequence (P11362 whole entry) above
Chain of Fibroblast growth factor receptor (Homo sapiens) (P21802 whole entry, looked up): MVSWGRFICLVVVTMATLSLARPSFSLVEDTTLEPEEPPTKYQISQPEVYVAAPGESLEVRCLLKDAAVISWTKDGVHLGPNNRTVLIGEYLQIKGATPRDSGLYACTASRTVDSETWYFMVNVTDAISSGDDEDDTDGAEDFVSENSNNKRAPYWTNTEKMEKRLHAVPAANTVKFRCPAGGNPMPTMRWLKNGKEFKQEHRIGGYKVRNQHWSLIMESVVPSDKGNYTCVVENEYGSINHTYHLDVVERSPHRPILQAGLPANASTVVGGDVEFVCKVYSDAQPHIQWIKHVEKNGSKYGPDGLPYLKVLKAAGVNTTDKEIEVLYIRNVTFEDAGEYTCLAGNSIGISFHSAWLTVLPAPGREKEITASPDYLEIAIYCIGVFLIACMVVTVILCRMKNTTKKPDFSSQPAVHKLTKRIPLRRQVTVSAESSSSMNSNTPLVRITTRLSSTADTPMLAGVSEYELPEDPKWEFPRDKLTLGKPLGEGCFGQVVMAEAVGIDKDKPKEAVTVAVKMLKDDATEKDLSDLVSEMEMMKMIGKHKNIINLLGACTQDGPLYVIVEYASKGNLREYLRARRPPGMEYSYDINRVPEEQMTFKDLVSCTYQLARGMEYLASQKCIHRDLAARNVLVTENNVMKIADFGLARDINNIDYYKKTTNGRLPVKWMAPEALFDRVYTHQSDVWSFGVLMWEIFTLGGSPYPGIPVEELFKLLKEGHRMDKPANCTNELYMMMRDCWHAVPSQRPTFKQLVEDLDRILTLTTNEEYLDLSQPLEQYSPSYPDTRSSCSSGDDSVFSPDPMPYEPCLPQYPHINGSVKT
Chain of Fibroblast growth factor receptor (Homo sapiens) (P22455 whole entry, looked up): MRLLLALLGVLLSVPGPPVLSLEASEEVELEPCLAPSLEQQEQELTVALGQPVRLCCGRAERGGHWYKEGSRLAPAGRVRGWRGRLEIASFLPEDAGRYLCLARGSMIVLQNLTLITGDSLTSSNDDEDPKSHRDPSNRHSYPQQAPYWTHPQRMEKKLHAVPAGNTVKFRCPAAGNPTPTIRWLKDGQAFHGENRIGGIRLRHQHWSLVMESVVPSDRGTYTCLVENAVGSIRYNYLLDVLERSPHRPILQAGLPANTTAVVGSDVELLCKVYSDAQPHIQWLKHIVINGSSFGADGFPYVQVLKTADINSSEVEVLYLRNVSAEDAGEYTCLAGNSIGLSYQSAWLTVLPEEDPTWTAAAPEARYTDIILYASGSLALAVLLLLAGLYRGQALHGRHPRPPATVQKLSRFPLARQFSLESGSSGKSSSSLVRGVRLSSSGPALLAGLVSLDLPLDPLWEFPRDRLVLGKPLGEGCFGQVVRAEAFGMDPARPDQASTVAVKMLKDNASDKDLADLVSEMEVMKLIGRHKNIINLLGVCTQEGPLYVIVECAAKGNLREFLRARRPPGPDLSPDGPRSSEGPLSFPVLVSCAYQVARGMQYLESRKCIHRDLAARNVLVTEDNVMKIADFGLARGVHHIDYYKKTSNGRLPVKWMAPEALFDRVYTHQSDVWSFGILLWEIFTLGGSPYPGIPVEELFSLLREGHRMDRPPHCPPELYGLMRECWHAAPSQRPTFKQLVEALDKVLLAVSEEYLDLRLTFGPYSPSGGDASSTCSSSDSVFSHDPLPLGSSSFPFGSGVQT
Chain of Fibroblast growth factor receptor (Homo sapiens) (P22607 whole entry, looked up): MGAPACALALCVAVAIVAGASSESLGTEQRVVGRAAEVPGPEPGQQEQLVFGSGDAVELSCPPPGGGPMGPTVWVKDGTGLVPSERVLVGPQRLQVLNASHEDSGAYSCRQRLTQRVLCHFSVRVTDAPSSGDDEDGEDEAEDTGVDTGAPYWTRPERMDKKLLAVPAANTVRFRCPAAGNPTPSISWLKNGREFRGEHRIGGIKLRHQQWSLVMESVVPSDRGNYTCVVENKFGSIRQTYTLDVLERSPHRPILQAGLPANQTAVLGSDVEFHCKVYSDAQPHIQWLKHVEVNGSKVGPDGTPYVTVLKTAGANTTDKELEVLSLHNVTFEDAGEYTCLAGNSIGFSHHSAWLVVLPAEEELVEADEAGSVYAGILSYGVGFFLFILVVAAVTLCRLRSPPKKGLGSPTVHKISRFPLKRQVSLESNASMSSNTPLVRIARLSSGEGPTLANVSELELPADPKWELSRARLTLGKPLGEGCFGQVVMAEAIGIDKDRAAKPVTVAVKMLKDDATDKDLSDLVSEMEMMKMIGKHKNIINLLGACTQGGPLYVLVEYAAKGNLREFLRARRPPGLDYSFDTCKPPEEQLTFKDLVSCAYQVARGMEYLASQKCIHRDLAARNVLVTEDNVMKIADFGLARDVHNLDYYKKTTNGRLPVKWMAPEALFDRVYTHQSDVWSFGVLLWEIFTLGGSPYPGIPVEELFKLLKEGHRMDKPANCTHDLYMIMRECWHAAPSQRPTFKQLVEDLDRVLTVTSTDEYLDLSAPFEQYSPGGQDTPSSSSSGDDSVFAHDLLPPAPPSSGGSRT
Chain of Fibroblast growth factor receptor 2 (P21802 whole entry): as the sequence (P21802 whole entry, looked up) above
Chain of Fibroblast growth factor receptor 4 (P22455 whole entry): as the sequence (P22455 whole entry, looked up) above
Chain of Fibroblast growth factor receptor 3 (P22607 whole entry): as the sequence (P22607 whole entry, looked up) above

SMILES	IC50 (SNU-16) [nM]	solubility kinetic [1] [µg/mL]	IC50 [2] [nM]	inhibition [3] [%]	also measured
C=CC(=O)N1CCC(n2nc3c(=O)[nH]nc(N)c3c2-c2oc3cc(C)ccc3c2C)CC1	< 0.3	10 (≈ 23.1 µM)	2.3		
C=CC(=O)N1CCCC(n2nc3c(=O)[nH]nc(N)c3c2-c2oc3cccc(OC)c3c2C)C1 (racemic)				32	
C=CC(=O)N1CCC(n2nc3c(=O)[nH]nc(N)c3c2-c2oc3ccc(C)cc3c2C)CC1	< 0.05	10 (≈ 23.1 µM)	8	91.2	IC50 [4]: 45.5 nM; Activity [5]: 84%; inhibition [6]: 78.2%; IC50 [7]: 18.7 nM; remaining at 2 h [8]: > 40%; inhibition [9]: 14.2%; IC50 [10]: 4.4 nM; Stability [11]: Stable; inhibition [12]: Active; IC50 [13]: 1130 nM
C=CC(=O)N[C@H]1CC[C@H](n2nc3c(=O)[nH]nc(N)c3c2-c2oc3ccc(C)cc3c2C)CC1	3.1			85.7	inhibition [6]: 47.4%; inhibition [9]: 32.4%
CC/C=C/C(=O)N1CCCC(n2nc3c(=O)[nH]nc(N)c3c2-c2oc3ccc(C)cc3c2C)C1 (racemic)			122		
CCC#CC(=O)N1CCC(n2nc3c(=O)[nH]nc(N)c3c2-c2oc3ccc(C)cc3c2C)CC1	< 0.3	1 (≈ 2.18 µM)	7.71		
C/C=C/C(=O)N1CCCC(n2nc3c(=O)[nH]nc(N)c3c2-c2oc3ccc(C)cc3c2C)C1 (racemic)			67.7		
CC#CC(=O)N1CCC(n2nc3c(=O)[nH]nc(N)c3c2-c2oc3ccc(C)cc3c2C)CC1	< 0.3	1 (≈ 2.25 µM)	6.7		Activity [5]: 87%; Stability [11]: Stable
C=CC(=O)N1CCC(n2nc3c(=O)[nH]nc(N)c3c2-c2oc3ccc(OC)cc3c2C)CC1				44	
C=CC(=O)Nc1ccc(-n2nc3c(=O)[nH]nc(N)c3c2-c2oc3ccc(C)cc3c2C)cc1		1 (≈ 2.27 µM)			solubility [14]: 1 µg/mL (≈ 2.27 µM)
Cc1ccc2oc(-c3c4c(N)n[nH]c(=O)c4nn3C3CCN(C(=O)C#CCO)CC3)c(C)c2c1	16.6		2.2		
C=CC(=O)N1CCC(n2nc3c(=O)[nH]nc(N)c3c2-c2oc3cccc(OC)c3c2C)CC1	< 0.3		111		
C=CC(=O)N1CCC(n2nc3c(=O)[nH]nc(N)c3c2-c2oc3cc(OC)ccc3c2C)CC1	8.9		101		
C#CC(=O)N1CCCC(n2nc3c(=O)[nH]nc(N)c3c2-c2oc3ccc(C)cc3c2C)C1 (racemic)	15.8		3.9		
C=CC(=O)N1CCC[C@@H](n2nc(-c3ccc(Oc4ccccc4)cc3)c3c(N)ncnc32)C1 [IBRUTINIB]		10 (≈ 22.7 µM)			
Cc1ccc2oc(-c3c4c(N)n[nH]c(=O)c4nn3C3CCCN(C(=O)/C=C/CN(C)C)C3)c(C)c2c1 (racemic)		10 (≈ 20.4 µM)	117		
Cc1ccc2oc(-c3c4c(N)n[nH]c(=O)c4nn3C3CCCN(C(=O)CC#N)C3)c(C)c2c1 (racemic)				31	
C=CC(=O)N1CCC(n2nc3c(=O)[nH]nc(N)c3c2-c2oc3ccc(F)cc3c2C)CC1				20	

SMILES	IC50 (SNU-16) [nM]	solubility kinetic [1] [µg/mL]	IC50 [2] [nM]	inhibition [3] [%]	also measured
C=C(F)C(=O)N1CCC(n2nc3c(=O)[nH]nc(N)c3c2-c2oc3ccc(C)cc3c2C)CC1		10 (≈ 22.2 µM)			
C=CC(=O)N1CCCC(n2nc3c(=O)[nH]nc(N)c3c2-c2oc3ccc(Cl)cc3c2C)C1 (racemic)	< 0.3		6.4		
C=C(C)C(=O)N1CCCC(n2nc3c(=O)[nH]nc(N)c3c2-c2oc3ccc(C)cc3c2C)C1 (racemic)				36	
C=CC(=O)N1CCC(n2nc3c(=O)[nH]nc(N)c3c2-c2oc3cc(OC)cc(OC)c3c2C)CC1			84.4	44	
C#CC(=O)N1CCC(n2nc3c(=O)[nH]nc(N)c3c2-c2oc3ccc(C)cc3c2C)CC1	< 0.3	10 (≈ 23.2 µM)	0.9		Activity [5]: 0%; Stability [11]: Unstable
C=CC(=O)N1CCC(n2nc3c(=O)[nH]nc(N)c3c2-c2oc3ccc(C(F)(F)F)cc3c2C)CC1				27	
Cc1ccc2oc(-c3c4c(N)n[nH]c(=O)c4nn3C3CCCN(C(=O)C#CCO)C3)c(C)c2c1 (racemic)	82.9		21.9		
CC#CC(=O)N1CCCC(n2nc3c(=O)[nH]nc(N)c3c2-c2oc3ccc(C)cc3c2C)C1 (racemic)	35.2		27.3		
CN(C)C/C=C/C(=O)Nc1cc2c(Nc3ccc(F)c(Cl)c3)ncnc2cc1O[C@H]1CCOC1 [AFATINIB]		50 (≈ 103 µM)			
C=CC(=O)N1CCCC(n2nc3c(=O)[nH]nc(N)c3c2-c2oc3cc(OC)ccc3c2C)C1 (racemic)				11	
C=CC(=O)N1CCC(n2nc3c(=O)[nH]nc(N)c3c2-c2oc3cc(F)ccc3c2C)CC1	1.5	10 (≈ 22.9 µM)	6.5		
C=CC(=O)N1CCC(n2nc3c(=O)[nH]nc(N)c3c2-c2oc3ccc(Cl)cc3c2C)CC1	9		2		
C/C=C(\C)C(=O)N1CCCC(n2nc3c(=O)[nH]nc(N)c3c2-c2oc3ccc(C)cc3c2C)C1 (racemic)				37	
CCC#CC(=O)N1CCCC(n2nc3c(=O)[nH]nc(N)c3c2-c2oc3ccc(C)cc3c2C)C1 (racemic)	36.4		25.4		
C=CC(=O)N1CCCC(n2nc3c(=O)[nH]nc(N)c3c2-c2oc3cc(OC)cc(OC)c3c2C)C1 (racemic)				40	
COc1cc(CCc2cc(NC(=O)c3ccc(N4C[C@@H](C)N[C@@H](C)C4)cc3)n[nH]2)cc(OC)c1 [FEXAGRATINIB]	3.7				IC50 (NCI-H1581): 15.8 nM; IC50 (NCI-H716): 0.6 nM
C=CC(=O)N1CCC(Cn2nc3c(=O)[nH]nc(N)c3c2-c2oc3ccc(C)cc3c2C)CC1	2	10 (≈ 22.4 µM)		61.6	inhibition [6]: 48.3%; inhibition [9]: 29.5%
